ChEMBL document CHEMBL1136940, “Design and implementation of an ribonucleic acid (RNA) directed fragment library” (J Med Chem, 2009)
Active and inactive are the calls of the source. No cut-off for these calls is given here. *1 amine or outer side, *2 acyl side, *3 side chain or, on linkers, in order; H or OH if unused. Where a SMILES comes first, the peptide text is derived from it. Bridges are numbered along the chain shown (N, C = ends). [ ]: non-standard residue; d: D form. The star is where a group is joined. X1 = NC1=N[C@@H]([C@H](N[*:1])C(=O)[*:2])C[C@H](O)N1; ΔAla(Z-3-ureido) = NC(=O)N/C=C(\N)C(=O)O; β3hOrn = NCCC[C@H](N)CC(=O)*; Dap = NC[C@H](N)C(=O)O

Columns and labels:
Format in all cases: nucleic-acid assay
[1] = target: Nucleic Acid; assay: Binding affinity to A-site RNA
[2] = test system: Nucleic Acid; assay: Binding affinity to Escherichia coli 23S rRNA L11 binding domain
[3] = target: Nucleic Acid; assay: Binding affinity to RNA ribosome intersubuint bridge
[4] = target: Nucleic Acid; assay: Binding affinity to small bacterial subunit RNA
[5] = target: Nucleic Acid; assay: Binding affinity to RNAse P
[6] = test system: Nucleic Acid; assay: Displacement of gentamycin from RNA bulge site of Escherichia coli 16S ribosomal 27-nucleotide A-site RNA by water Logsy NMR spectroscopy based noncompetitive binding assay
[7] = test system: Nucleic Acid; assay: Displacement of gentamycin from RNA bulge site of Escherichia coli 16S ribosomal 27-nucleotide A-site RNA by T2 filter NMR spectroscopy based competitive binding assay
[8] = test system: Nucleic Acid; assay: Displacement of gentamycin from Escherichia coli 16S ribosomal 27-nucleotide A-site RNA by water Logsy NMR spectroscopy based competitive displacement assay
[9] = test system: Nucleic Acid; assay: Displacement of gentamycin from Escherichia coli 16S ribosomal 27-nucleotide A-site RNA by T2 filter NMR spectroscopy based competitive displacement assay
[10] = target: Nucleic Acid; assay: Binding affinity to ribosome/exit tunnel RNA region
[11] = test system: Nucleic Acid; assay: Binding affinity to Escherichia coli 23S rRNA L11 binding domain in presence of protein

NC[C@@H]1O[C@H](O[C@H]2[C@@H](O)[C@H](O[C@@H]3[C@@H](O)[C@H](N)C[C@H](N)[C@H]3O[C@H]3O[C@H](CN)[C@@H](O)[C@H](O)[C@H]3N)O[C@@H]2CO)[C@H](N)[C@@H](O)[C@@H]1O [FRAMYCETIN]
Kd [1]: 60 nM

C=C(NC(=O)c1csc(-c2nc3c(cc2O)-c2nc(cs2)C(=O)NC(C(C)O)C(=O)N/C(=C\C)c2nc(cs2)C(=O)NC2CC(O)C(=O)OCc4cccc5[nH]c(c(C)c45)C(=O)SCC(NC(=O)c4csc2n4)c2nc-3cs2)n1)C(N)=O (stereo not drawn) [NOSIHEPTIDE]
Kd [2]: < 3000 nM

NCCC[C@H](N)CC(=O)N[C@H]1CNC(=O)[C@H]([C@H]2C[C@H](O)NC(N)=N2)NC(=O)/C(=C/NC(N)=O)NC(=O)[C@H](CO)NC(=O)[C@H](CO)NC1=O [VIOMYCIN] (β3hOrn-[Dap]SS[ΔAla(Z-3-ureido)][X1]; lactam 1-C)
Kd [3]: < 3000 nM

CN[C@@H]1[C@@H](O)[C@@H](O[C@@H]2[C@@H](O)[C@H](O[C@H]3O[C@H]([C@@H](C)O)[C@@H](O)[C@H](O)[C@H]3N)[C@@H](N)C[C@H]2N)OC[C@]1(C)O [GENETICIN]
Kd [1]: < 100 nM

NCC[C@H](O)C(=O)N[C@@H]1C[C@H](N)[C@@H](O[C@H]2O[C@H](CN)[C@@H](O)[C@H](O)[C@H]2O)[C@H](O)[C@H]1O[C@H]1O[C@H](CO)[C@@H](O)[C@H](N)[C@H]1O [AMIKACIN]
Kd [1]: 50 nM

CN[C@@H]1[C@H](O[C@H]2[C@H](O[C@H]3[C@H](O)[C@@H](O)[C@H](N=C(N)N)[C@@H](O)[C@@H]3N=C(N)N)O[C@@H](C)[C@]2(O)C=O)O[C@@H](CO)[C@H](O)[C@H]1O [STREPTOMYCIN]
Kd [4]: < 12000 nM

NC(=O)Cc1ccccn1 [PYRIDINE ACETAMIDE]
Kd [5]: 20000 nM

c1ccc2nc3ccccc3cc2c1
Activity [6]: Active
Activity [7]: Active

N[C@@H]1C[C@H](N)[C@@H](O)[C@H](O)[C@H]1O
Activity [8]: Active
Activity [9]: Active

NC[C@@H]1O[C@H](O[C@H]2[C@@H](O)[C@H](O[C@@H]3[C@@H](O)[C@H](N)C[C@H](N)[C@H]3O[C@H]3O[C@H](CO)[C@@H](O)[C@H](O)[C@H]3N)O[C@@H]2CO)[C@H](N)[C@@H](O)[C@@H]1O [PAROMOMYCIN]
Kd [1]: < 12000 nM

NC[C@@H]1O[C@H](O[C@H]2[C@@H](O)[C@H](O[C@@H]3[C@@H](O)[C@H](N)C[C@H](N)[C@H]3O[C@H]3O[C@H](CO)[C@@H](O)C[C@H]3N)O[C@@H]2CO)[C@H](N)[C@@H](O)[C@@H]1O[C@H]1O[C@H](CO)[C@@H](O)[C@H](O)[C@@H]1O [LIVIDOMYCIN]
Kd [1]: 28 nM

NC[C@H]1O[C@H](O[C@H]2[C@H](O)[C@@H](O[C@H]3O[C@H](CO)[C@@H](O)[C@H](N)[C@H]3O)[C@H](N)C[C@@H]2N)[C@H](N)C[C@@H]1O [TOBRAMYCIN]
Kd [1]: 80 nM

CN[C@@H]1[C@@H](O[C@H]2O[C@H](CO)[C@@H](N)[C@H](O)[C@H]2O)OC2C[C@@H](N)[C@@H](O[C@H]3[C@H](O)[C@@H](O)[C@H](N)C[C@@H]3N)OC2[C@@H]1O (stereo partly drawn) [APRAMYCIN]
Kd [1]: 60 nM

NC[C@H]1O[C@H](O[C@H]2[C@H](O[C@@H]3O[C@H](CO)[C@@H](O)[C@H]3O)[C@@H](O)[C@H](N)C[C@@H]2N)[C@H](N)[C@@H](O)[C@@H]1O [RIBOSTAMYCIN]
Kd [1]: 1700 nM

NC[C@@H]1O[C@@H](O[C@H]2[C@H](O)[C@@H](O[C@H]3O[C@H](CO)[C@@H](O)[C@H](N)[C@H]3O)[C@H](N)C[C@@H]2N)[C@@H](O)[C@H](O)[C@H]1O [KANAMYCIN A]
Kd [1]: 100 nM

NC[C@H]1O[C@H](O[C@H]2[C@H](O)[C@@H](O[C@H]3O[C@H](CO)[C@@H](O)[C@H](N)[C@H]3O)[C@H](N)C[C@@H]2N)[C@H](N)[C@@H](O)[C@@H]1O [BEKANAMYCIN]
Kd [1]: 60 nM

CC[C@H]1OC(=O)C[C@@H](O)[C@H](C)[C@@H](O[C@@H]2O[C@H](C)[C@@H](O[C@H]3C[C@@](C)(O)[C@@H](O)[C@H](C)O3)[C@H](N(C)C)[C@H]2O)[C@@H](CC=O)C[C@@H](C)C(=O)/C=C/C(C)=C/[C@@H]1CO[C@@H]1O[C@H](C)[C@@H](O)[C@@H](OC)[C@H]1OC [TYLOSIN]
Kd [10]: 2.75 nM

C=C(NC(=O)C(=C)NC(=O)c1csc(C2=N[C@@H]3c4csc(n4)[C@H]4NC(=O)c5csc(n5)[C@H]([C@](C)(O)[C@@H](C)O)NC(=O)[C@H]5CSC(=N5)/C(=C/C)NC(=O)[C@H]([C@@H](C)O)NC(=O)c5csc(n5)[C@]3(CC2)NC(=O)[C@H](C)NC(=O)C(=C)NC(=O)[C@H](C)NC(=O)[C@H]([C@@H](C)CC)N[C@@H]2C=Cc3c([C@H](C)O)cc(nc3[C@H]2O)C(=O)O[C@@H]4C)n1)C(N)=O [THIOSTREPTON]
Kd [2]: 1300 nM
Kd [11]: < 50 nM

Cc1cc(N(C)C)nc2cc(N)ccc12
Activity [8]: Active
Activity [9]: Active
